# According to patent US11406660B2, “Treatment of bone marrow edema (OEDEMA) with polysulfated polysaccharides” (PARADIGM HEALTH SCIENCES PTY LTD, priority 2011, dated 2022):
# Key:
# [1] = system: OA; details: cited from earlier work
# [2] = system: subchondral BME in the femoral subchondral bone; assay: Case report Example 1: subject, knee injury with subchondral BME, course of PPS injections; assay type: in vivo, human; details: for BME on T1 weighted MRI: subject, one week after completing 10 x 100 mg/ml IM injections, FIG. 1B vs FIG. 1A
# Method: FIG. 1A is an MRI (T1 weighted scans) of subject […] showing the presence of bone marrow edema in the subchondral bone of the in left femoral condyle. Edema is evidenced by the reduced intensity of the signals in the semi-circular region beneath the articular cartilage. The MRI was taken 5 days following initial joint injury; and
# FIG. 1B is an MRI (T1 weighted scans) of subject […] taken one week after completing a course of 10×100 mg/ml IM injection of pentosan polysulfate. […] Magnification of MRI image shown is slightly higher than for FIG. 1A.
# A subject ([…]) in good general health while jogging on the footpath stumbled and fell laterally striking the pavement with their right knee. Next day the knee was swollen and extremely painful and when examined by a medical practitioner was diagnosed as avulsion of the collateral ligament attachment to tibial bone. […] Five days after sustaining the injury surgical repair was undertaken to re-attach the free ligament bone insertion to the tibia. However the knee pain persisted thereafter and was not relieved by use of analgesics or NSAIDs. Five weeks after the surgery a course of PPS, 100 mg/ml injections administered intramuscularly twice weekly for 5 weeks was initiated (total of 10 injections). After receiving the 6th injection, the pain and joint swelling had disappeared and one week after completion of the PPS course of injections the joint was again reviewed by T1 weighted MM.
# [3] = cited from earlier work
# [4] = system: sub-chondral bone contusion (BME); assay: Case report Example 3: subject one, knee pain after sub-chondral bone contusion (BME), daily intramuscular PPS; assay type: in vivo, human; details: for knee pain: 100 mg intramuscular daily
# Method: For example, in one instance, the pain suffered by a patient was so debilitating that the patient received a total of 7 intramuscular injections (7×1 ml ampoules PPS [7×100 mg]) over a period of 7 day until the pain resolved. This equated to just over 1.0 mg/kg PPS daily.
# A healthy person one with genu varum of approximately 5 degrees slipped on a step at an airport terminal while rushing to catch an international flight such that their left foot made an unexpected high impact with the ground. After arriving at their destination late that evening, the person retired for the night but was woken in the early hours of the morning with intense throbbing pain originating from the medial compartment of their left knee joint.
substance,measurement,setting,value
pentosan polysulfate [PPS],symptoms in patients with OA,[1],symptomatic relief
same,pain and joint swelling,"[2]; subject three, 100 mg/ml intramuscularly twice weekly for 5 weeks, after the 6th injection",disappeared
same,BME on T1 weighted MRI,[2],completely resolved
same,BME on T1 weighted MRI,[2]; listed as pentosan polysulfate,absence of bone marrow edema
same,anticoagulant activity compared with heparin,[3],weaker anticoagulant than heparin
same,pain,"[4]; a patient, 7 intramuscular injections (7 x 100 mg) over 7 days, just over 1.0 mg/kg daily",resolved
same,knee pain,"[4]; subject one, after the 7th injection",completely resolved
same,knee pain,"[4]; subject one, following the 5th injection",substantially subsided
same,recurrence of debilitating joint pain,"[4]; subject one, subsequent months following the PPS course of therapy",did not re-occur
